This note sets out measurements from publication PMC6364417, “Kinase inhibitor library screening identifies synergistic drug combinations effective in sensitive and resistant melanoma cells” (Journal of Experimental & Clinical Cancer Research : CR, 2019).

Holding throughout (assay): Kinase inhibitor library screening, PrestoBlue cell viability, 1 or 10 μM, 72 h
Data set [1] relates to IGR37-XP cells (Vemurafenib-resistant). To be noted: IGR37 XP.
For data set [2], the system named is IGR37 cells (parental). Conditions: IGR37 Parental.
Data set [3] relates to 501Mel-XP cells (Vemurafenib-resistant). To be noted: 501Mel XP.
In data set [4] the test system is 501Mel-GP cells (Dabrafenib-resistant). To be noted: 501Mel GP.
Data set [5] deals with A375-XP cells (Vemurafenib-resistant). To be noted: A375 XP.
In data set [6] the test system is A375-GP cells (Dabrafenib-resistant). Conditions: A375 GP.
Data set [7] deals with 501Mel cells (parental). Conditions: 501Mel Parental. The essentials:
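Kinase inhibitors added at two fixed concentrations; 72 h exposure; PrestoBlue readout; % viability vs untreated; n ≥ 2 per line.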

For data set [8], the system named is IGR37-GP cells (Dabrafenib-resistant). Conditions: IGR37 GP.
Data set [9] has as its system A375 cells (parental). Conditions: A375 Parental.

For the compound `Cc1cc2c(F)c(Oc3ncnn4cc(OC[C@@H](C)O)c(C)c34)ccc2[nH]1` [Brivanib (BMS-540215)], the “cell viability (kinase inhibitor library screening)” value is on record as 107.9 in [1] (1μΜ, in %); 73.1 in [1] (10μΜ, in %); 99.8 in data set [2] (10μΜ, in %); 100.3 in [3] (1μΜ, in %); 80.7 in data set [3] (10μΜ, in %); 106.3 in data set [4] (1μΜ, in %). Also, the “cell viability (kinase inhibitor library screening)” value in data set [4] (10μΜ, in %) is reported as 89.6; in [5] (1μΜ, in %) it was 104.1; in data set [5] (10μΜ, in %) it was 89.7; in data set [6] (1μΜ, in %) it was 103.4; in data set [6] (10μΜ, in %), 79.9; in data set [7] (1μΜ, in %), 104.3. Besides, the “cell viability (kinase inhibitor library screening)” value in [7] (10μΜ, in %) turned out to be 93.4; in [8] (10μΜ, in %), 95.2; in data set [9] (1μΜ, in %) it was 105.2; in [9] (10μΜ, in %), 84.3.

In the case of `S=C(NCc1ccc2c(c1)OCO2)N1CCN(c2ncnc3c2oc2ccccc23)CC1` [Amuvatinib (MP-470)], the “cell viability (kinase inhibitor library screening)” value in data set [1] (10μΜ, 72 h) is recorded as 77.9%; in [2] (1μΜ, 72 h), 95.9%; in data set [2] (10μΜ, 72 h), 97.0%; in data set [3] (1μΜ, 72 h), 100.3%; in [3] (10μΜ, 72 h) it was 88.3%; in data set [4] (1μΜ, 72 h) it was 105.2%. Also, the “cell viability (kinase inhibitor library screening)” value in data set [4] (10μΜ, 72 h) worked out at 86.9%; in data set [5] (1μΜ, 72 h) it was 104.7%; in data set [5] (10μΜ, 72 h), 94.9%; in [6] (1μΜ, 72 h), 95.9%; in [6] (10μΜ, 72 h) it was 84.4%; in data set [7] (1μΜ, 72 h) it was 98.9%. For the same compound, the “cell viability (kinase inhibitor library screening)” value in data set [7] (10μΜ, 72 h) is 98.9%; in data set [8] (1μΜ, 72 h), 94.7%; in data set [8] (10μΜ, 72 h), 95.7%; in data set [9] (10μΜ, 72 h) it was 84.8%; in data set [9] (1μΜ, 72 h), 97.4%.

`NC(=O)c1ccc(N(C(N)=O)c2c(F)cccc2F)nc1-c1ccc(F)cc1F` [VX-702] had a Cell viability in kinase inhibitor library screening, IGR37 XP, 10μΜ in data set [1] (10μΜ, 72 h) of 76.8%. In addition, in data set [2] (10μΜ, 72 h, in %), the “Cell viability in kinase inhibitor library screening, IGR37 Parental, 10μΜ” value came to 103.3. In addition, in data set [3] (1μΜ, 72 h, in %), the “Cell viability in kinase inhibitor library screening, 501Mel XP, 1μΜ” value is on record as 91.5. The “Cell viability in kinase inhibitor library screening, 501Mel XP, 10μΜ” value in data set [3] (10μΜ, 72 h, in %) was found to be 83.4. Also, the “Cell viability in kinase inhibitor library screening, 501Mel GP, 1μΜ” value in data set [4] (1μΜ, 72 h, in %) was determined as 99.8. In data set [4] (10μΜ, 72 h, in %), the “Cell viability in kinase inhibitor library screening, 501Mel GP, 10μΜ” value is given as 87.7. Further, in data set [5] (1μΜ, 72 h), the “Cell viability in kinase inhibitor library screening, A375 XP, 1μΜ” value came to 104.7. The “Cell viability in kinase inhibitor library screening, A375 XP, 10μΜ” value in [5] (10μΜ, 72 h) was 104.6. The “Cell viability in kinase inhibitor library screening, A375 GP, 10μΜ” value in [6] (10μΜ, 72 h) was 97.2. For the same compound, the “Cell viability in kinase inhibitor library screening, 501Mel Parental, 10μΜ” value in data set [7] (10μΜ, 72 h, in %) is reported as 97.1. The Cell viability in kinase inhibitor library screening, IGR37 GP, 10μΜ in [8] (10μΜ, 72 h) was 93.6%. Further, in data set [8] (1μΜ, 72 h, in %), the “Cell viability in kinase inhibitor library screening, IGR37 GP, 1μΜ” value stood at 98.3. For the same compound, the “Cell viability in kinase inhibitor library screening, A375 Parental, 10μΜ” value in data set [9] (10μΜ, 72 h) came to 90.0. For the same compound, in data set [9] (1μΜ, 72 h), the “Cell viability in kinase inhibitor library screening, A375 Parental, 1μΜ” value came out at 102.7.

Consider `COc1ccc(-c2ccc3c(N4CCOCC4)nc(N4C[C@@H](C)O[C@@H](C)C4)nc3n2)cc1CO` [Ku-0063794], for which the Cell viability in kinase inhibitor library screening, IGR37 XP, 10μΜ in data set [1] (10μΜ, 72 h) was determined as 12.3%. Also, the “Cell viability in kinase inhibitor library screening, IGR37 XP, 1μΜ” value in data set [1] (1μΜ, 72 h, in %) turned out to be 68.5. In addition, the “Cell viability in kinase inhibitor library screening, IGR37 Parental, 1μΜ” value in [2] (1μΜ, 72 h, in %) was determined as 73.4. Further, the “Cell viability in kinase inhibitor library screening, IGR37 Parental, 10μΜ” value in data set [2] (10μΜ, 72 h, in %) is listed as 23.7. Besides, the “Cell viability in kinase inhibitor library screening, 501Mel XP, 1μΜ” value in [3] (1μΜ, 72 h, in %) is on record as 47.2. In addition, in data set [3] (10μΜ, 72 h, in %), the “Cell viability in kinase inhibitor library screening, 501Mel XP, 10μΜ” value amounted to 6.9. In addition, the “Cell viability in kinase inhibitor library screening, 501Mel GP, 1μΜ” value in data set [4] (1μΜ, 72 h, in %) is listed as 56.6. The “Cell viability in kinase inhibitor library screening, 501Mel GP, 10μΜ” value in data set [4] (10μΜ, 72 h, in %) was found to be 13.4. Moreover, the “Cell viability in kinase inhibitor library screening, A375 XP, 1μΜ” value in data set [5] (1μΜ, 72 h) was 54.3. Also, the “Cell viability in kinase inhibitor library screening, A375 XP, 10μΜ” value in [5] (10μΜ, 72 h) is recorded as 19.7. Besides, in data set [6] (1μΜ, 72 h), the “Cell viability in kinase inhibitor library screening, A375 GP, 1μΜ” value came to 63.9. In addition, in data set [6] (10μΜ, 72 h), the “Cell viability in kinase inhibitor library screening, A375 GP, 10μΜ” value was 20.8. Besides, the “Cell viability in kinase inhibitor library screening, 501Mel Parental, 1μΜ” value in data set [7] (1μΜ, 72 h, in %) amounted to 71.5. The “Cell viability in kinase inhibitor library screening, 501Mel Parental, 10μΜ” value in data set [7] (10μΜ, 72 h, in %) came to 16.9. Besides, the Cell viability in kinase inhibitor library screening, IGR37 GP, 10μΜ in data set [8] (10μΜ, 72 h) turned out to be 36.1%. In data set [8] (1μΜ, 72 h, in %), the “Cell viability in kinase inhibitor library screening, IGR37 GP, 1μΜ” value amounted to 76.2. In addition, in data set [9] (10μΜ, 72 h), the “Cell viability in kinase inhibitor library screening, A375 Parental, 10μΜ” value is given as 24.0. The “Cell viability in kinase inhibitor library screening, A375 Parental, 1μΜ” value in data set [9] (1μΜ, 72 h) was 63.8.

Turning to `CC(=O)c1c(C)c2cnc(Nc3ccc(N4CCNCC4)cn3)nc2n(C2CCCC2)c1=O.Cl` [PD 0332991 (Palbociclib) HCl], the “cell viability (kinase inhibitor library screening)” value came to 98.1% in data set [1] (1μΜ, 72 h); 28.9% in data set [1] (10μΜ, 72 h); 96.5% in data set [2] (1μΜ, 72 h); 76.9% in data set [3] (1μΜ, 72 h); 25.1% in data set [3] (10μΜ, 72 h); 83.8% in [4] (1μΜ, 72 h). For the same compound, the “cell viability (kinase inhibitor library screening)” value was found to be 66.3% in data set [4] (10μΜ, 72 h); 74.5% in data set [5] (1μΜ, 72 h); 63.1% in [5] (10μΜ, 72 h); 77.9% in data set [6] (1μΜ, 72 h); 57.2% in data set [6] (10μΜ, 72 h); 89.7% in data set [7] (1μΜ, 72 h). Besides, the “cell viability (kinase inhibitor library screening)” value in [7] (10μΜ, 72 h) was 80.1%; in [8] (10μΜ, 72 h) it was 78.0%; in data set [9] (10μΜ, 72 h) it was 59.1%; in [9] (1μΜ, 72 h), 78.9%.

In data set [1] (10μΜ, 72 h), `CCN1CCN(Cc2ccc(-c3cc4c(N[C@H](C)c5ccccc5)ncnc4[nH]3)cc2)CC1` [AEE788 (NVP-AEE788)] gave a cell viability, IGR37 XP, 10μΜ of 25.4%. In data set [1] (1μΜ, 72 h, in %), the “cell viability, IGR37 XP, 1μΜ” value was 82.4. Moreover, in data set [2] (10μΜ, 72 h, in %), the “cell viability, IGR37 Parental, 10μΜ” value turned out to be 87.9. For the same compound, in [3] (1μΜ, 72 h, in %), the “cell viability, 501Mel XP, 1μΜ” value is reported as 105.3. In addition, in data set [3] (10μΜ, 72 h, in %), the “cell viability, 501Mel XP, 10μΜ” value is 0.239. For the same compound, in data set [4] (1μΜ, 72 h, in %), the “cell viability, 501Mel GP, 1μΜ” value is given as 114.3. Also, in data set [4] (10μΜ, 72 h, in %), the “cell viability, 501Mel GP, 10μΜ” value turned out to be 1.2. The “cell viability, A375 XP, 1μΜ” value in data set [5] (1μΜ, 72 h, in %) came to 105.5. Also, the “cell viability, A375 XP, 10μΜ” value in data set [5] (10μΜ, 72 h, in %) stood at 70.7. In addition, the “cell viability, A375 GP, 1μΜ” value in data set [6] (1μΜ, 72 h, in %) is on record as 110.2. Also, the “cell viability, A375 GP, 10μΜ” value in data set [6] (10μΜ, 72 h, in %) was determined as 49.2. In addition, in [7] (1μΜ, 72 h, in %), the “cell viability, 501Mel Parental, 1μΜ” value is 103.7. In [7] (10μΜ, 72 h, in %), the “cell viability, 501Mel Parental, 10μΜ” value was 1.2. The cell viability, IGR37 GP, 10μΜ in data set [8] (10μΜ, 72 h) worked out at 82.6%. In addition, the “cell viability, IGR37 GP, 1μΜ” value in [8] (1μΜ, 72 h, in %) is recorded as 94.0. Besides, the “cell viability, A375 Parental, 1μΜ” value in [9] (1μΜ, 72 h, in %) is 108.2. Also, the “cell viability, A375 Parental, 10μΜ” value in data set [9] (10μΜ, 72 h, in %) was found to be 70.3.

Regarding `Cc1ccc(NC(=O)c2ccc(CN3CCN(C)CC3)cc2)cc1Nc1nc(-c2cccnc2)cs1` [Masitinib (AB1010)], the “cell viability (kinase inhibitor library screening)” value in data set [1] (1μΜ, 72 h) was determined as 103.2%; in data set [1] (10μΜ, 72 h) it was 49.1%; in [2] (1μΜ, 72 h), 98.6%; in data set [2] (10μΜ, 72 h), 92.0%; in data set [3] (1μΜ, 72 h), 94.5%; in [3] (10μΜ, 72 h), 20.4%. The “cell viability (kinase inhibitor library screening)” value was 103.1% in data set [4] (1μΜ, 72 h); 85.2% in data set [4] (10μΜ, 72 h); 105.3% in data set [5] (1μΜ, 72 h); 94.5% in data set [5] (10μΜ, 72 h); 98.6% in [6] (1μΜ, 72 h); 85.2% in data set [6] (10μΜ, 72 h). Also, the “cell viability (kinase inhibitor library screening)” value in [7] (10μΜ, 72 h) is 88.8%; in [8] (10μΜ, 72 h), 77.4%; in [9] (10μΜ, 72 h) it was 87.9%.
